# Measured values as given in ChEMBL document CHEMBL4342426, “Structure-activity relationship of 4-azaindole-2-piperidine derivatives as agents against Trypanosoma cruzi” (Bioorg Med Chem Lett, 2020).
# Tests used:
# cells = conditions: Homo sapiens, MRC-5 SV2, 72 h
# Description: (§1) Cytotoxicity against human MRC5 SV2 cells assessed as reduction in cell viability incubated for 3 days by fluorimetry
# Macrophage = assay: cells; conditions: Mus musculus, 72 h
# Description: (§2) Cytotoxicity against mouse peritoneal Macrophage cells assessed as reduction in cell viability incubated for 3 days by fluorimetry
# in vitro [1] = conditions: human, MRC5 SV2 cells
# Description: as §1
# in vitro [2] = conditions: human, liver microsomes
# Description: Metabolic stability in human liver microsomes assessed as intrinsic clearance at 0.5 uM incubated for 30 mins by LC-MS/MS analysis
# in vitro [3] = conditions: mouse, liver microsomes
# Description: Metabolic stability in mouse liver microsomes assessed as intrinsic clearance at 0.5 uM incubated for 30 mins by LC-MS/MS analysis
# physchem = conditions: buffer, pH 7.4
# Description: Lipophilicity, logD of compound at pH 7.4 by HPLC analysis
# in vitro [4] = conditions: human, MRC5 SV2 cells; remark: listed apart in the source
# Description: Selectivity index, ratio of IC50 for human MRC5 SV2 cells to IC50 for Trypanosoma cruzi Tulahuen CL2 amastigotes infected in human MRC5 SV2 cells
# in vitro [5] = conditions: mouse, peritoneal macrophages
# Description: as §2
# in vitro [6] = conditions: human, MRC5 SV2 cells; remark: listed apart in the source
# Description: Selectivity index, ratio of IC50 for human MRC5 SV2 cells to IC50 for Trypanosoma brucei rhodesiense STIB900 trypomastigotes
# in vitro [7] = conditions: PAMPA
# Description: Effective permeability of compound by PAMPA assay
# Trypanosoma cruzi = assay: microbe, parasite or virus in culture; conditions: Tulahuen CL2, MRC-5 SV2, 168 h
# Description: Antitrypanosomal activity against Trypanosoma cruzi Tulahuen CL2 amastigotes infected in human MRC5 SV2 cells incubated for 7 days by chlorophenol red beta-D-galactopyranoside substrate based spectrophotometric assay
# Trypanosoma brucei = assay: microbe, parasite or virus in culture; conditions: Squib 427, 72 h
# Description: Antitrypanosomal activity against Trypanosoma brucei Squib 427 assessed as reduction in parasite growth incubated for 72 hrs by resazurin dye based fluorimetric analysis
# [8] = system: Trypanosoma brucei rhodesiense; assay: microbe, parasite or virus in culture; conditions: STIB900, 72 h
# Description: Antiprotozoal activity against Trypanosoma brucei rhodesiense STIB900 trypomastigotes incubated for 72 hrs by resazurin dye based fluorimetric analysis
# Leishmania infantum = assay: microbe, parasite or virus in culture; conditions: for IC50: MHOM/MA(BE)/67/ITMAP263, 120 h; for IC90: MHOM/MA(BE)/67/ITMAP263, in Mus musculus, 120 h
# Description: Antileishmanial activity against amastigote stage of Leishmania infantum MHOM/MA(BE)/67/ITMAP263 infected in mouse peritoneal macrophage assessed as parasite growth inhibition incubated for 5 days by Giemsa staining based assay
# in vitro [9] = conditions: mouse, peritoneal macrophages; remark: listed apart in the source
# Description: Selectivity index, ratio of IC50 for mouse peritoneal macrophage to IC50 for Leishmania infantum MHOM/MA(BE)/67/ITMAP263 infected in mouse peritoneal macrophage
# in vitro [10] = conditions: mouse, liver microsomes; remark: listed apart in the source
# Description: Metabolic stability in mouse liver microsomes assessed as fraction unbound at 0.5 uM incubated for 30 mins by LC-MS/MS analysis
SMILES,IC50 (cells) [µM],IC50 (Macrophage) [µM],IC90 at 72 h (in vitro [1]) [µM],"CLint scaled at 0.5 h, 0.5 µM (in vitro [2]) [mL/min/kg]","microsomal CLint at 0.5 h, 0.5 µM (in vitro [2]) [µL/min/mg]","CLint scaled at 0.5 h, 0.5 µM (in vitro [3]) [mL/min/kg]","microsomal CLint at 0.5 h, 0.5 µM (in vitro [3]) [µL/min/mg]",logD (physchem),selectivity ratio (in vitro [4]),IC90 at 72 h (in vitro [5]) [µM],selectivity ratio (in vitro [6]),Papp (in vitro [7]) [×10⁻⁶ cm/s],IC50 (Trypanosoma cruzi) [µM],IC90 (Trypanosoma cruzi) [µM],IC50 (Trypanosoma brucei) [µM],IC90 (Trypanosoma brucei) [µM],IC50 [8] [µM],IC90 [8] [µM],IC50 (Leishmania infantum) [µM],IC90 (Leishmania infantum) [µM],further results
O=C(Nc1cccc(-c2cc3ncccc3[nH]2)c1)c1ccccc1,64,64,64,≥ 392,363,≥ 1670,522,3.88,30.7,64,13.9,0.606,2.08,3.8,64,64,4.6,23.7,52.5,64,–
COc1ccc(OC)c2[nH]c(C(=O)N3CCCC(c4cc5ncccc5[nH]4)C3)cc12 (configuration not stated),22.6,32,29.9,235,–,9620,–,–,18.9,32,2.36,–,1.2,6.67,20.5,29.9,9.55,25.6,9.59,32,selectivity ratio (in vitro [9]): 2.35
O=C(c1ccc(F)cc1)N1CCCC(c2cc3nc(Cl)ccc3[nH]2)C1 (configuration not stated),64,64,64,125,78.4,1390,294,3.52,–,64,26,15,64,64,64,64,2.46,15.1,64,64,"fraction unbound at 0.5 h, 0.5 µM (in vitro [10]): 0.676"
CCC(=O)N1CCCC(c2nc3ncc(Cl)cc3[nH]2)C1 (configuration not stated),64,64,64,< 28.3,< 23,472,128,2.17,–,64,1.53,9.01,64,64,64,64,41.9,64,64,64,"fraction unbound at 0.5 h, 0.5 µM (in vitro [10]): 0.866"
O=C(c1ccccc1)N1C=C(c2cc3ncccc3[nH]2)CCC1,64,64,64,≥ 257,238,≥ 3320,1040,2.96,73.8,64,–,2.99,0.866,16,64,64,64,64,34.9,64,selectivity ratio (in vitro [9]): 1.84
O=C(c1ccc(F)cc1)N1CCCC(c2cc3nc(N4CCCC4)ccc3[nH]2)C1 (configuration not stated),48.7,45.3,64,92.5,50.1,1960 to 2410,441 to 444,3.45,5.86,59.7,6.07,0.152 to 0.228,8.33,31,43.4,60.8,8.03,14.1,41.8,59.6,"fraction unbound at 0.5 h, 0.5 µM (in vitro [10]): 0.586 to 0.722"
COc1cc(OC)c2cc(C(=O)N3CCCC(c4cc5ncccc5[nH]4)C3)[nH]c2c1 (configuration not stated),19.5,22.6,29.5,838,–,2420,–,–,18.8,29.9,2.65,–,1.03,3.13,19.6,29.5,7.33,24.4,18.6,29.8,selectivity ratio (in vitro [9]): 1.07
O=C(c1cc(C2CC2)no1)N1CCCC(c2cc3ncccc3[nH]2)C1 (configuration not stated),64,64,64,39.5,33.8,1610,467,2.86,15.8,64,1.56,3.17,4.05,13.8,64,64,41.9,64,37.1,64,"selectivity ratio (in vitro [9]): 1.73; fraction unbound at 0.5 h, 0.5 µM (in vitro [10]): 0.926"
